“Also recorded” adds a separate entry of the source.
Legend:
Pim1 = Pim1 (Homo sapiens, UniProt P11309); assay: Kinase assay with purified Pim1 and EDC3 (EDC3 S161 phosphorylation); assay type: biochemical; details: in vitro, FIG. 8
Description: (§1) FIGS. 7A-7I show inhibition of VBT5445 (VBT) on Pim1 and EDC3 binding and phosphorylation. FIG. 7A: In vitro co-precipitation (Co-PPT) assay was performed with recombinant EDC3 and biotinylated Pim1 using Streptavidin beads with increasing concentrations of the Pim inhibitor VBT5445 (VBT). FIG. 7B: Kinase assays were performed with recombinant EDC3 and Pim1 with increasing concentrations of VBT. FIG. 7C: Cell lysates from PC3-LN4 cells cultured with DMSO, 10 μM VBT, 3 μM AZD5363 (AKTi) and the combination for 6 hrs were subjected to western blotting (WB). […] WBs were performed using the indicated antibodies. FIG. 7E: PC3-LN4 cells were seeded into 48 well plate and incubated with either DMSO, VBT, AZD5363 or the combination, for 4.5 days. A real-time imaging system (IncuCyte™) was used to measure cell proliferation using a non-label cell monolayer confluence approach. FIG. 7F-7H: GFP image in PC3 LN4 GFP EDC3 expressing cells treated with PIMi: VBT (5 μM) and VBT (5 μM)+AZD5363 (3 μM) for 6 hrs.
Computer screening followed by surface plasmon resonance (SPR) yielded a lead compound VBT-5445 that can interact with the Pim-1 protein kinase. Enhancer of mRNA Decapping 3 (EDC3) is a substrate of the Pim kinase that regulates the decapping of messenger RNA, and its activity is modulated by Pim mediated phosphorylation. […]

PC3-LN4 cells = assay: P-body (PB) number in PC3-LN4 GFP-EDC3 cells; assay type: cell-based, human; details: 6 h
Description: as §1
To measure PB numbers, PC3-LN4 PCa cells containing a CRISPR/Cas total knock-out of EDC3 were stably transduced with GFP-EDC3. When localized in PBs, GFP spots could be quantified. PBs were quantified at the University of Colorado Center for Drug Discovery using an Opera Phenix Plus high content screening system (PerkinElmer) Perkin Elmer G3 robotic system after drug treatment. Assays were carried out in quadruplicate and the mean number of PBs per cell and cell area calculated. An example of this assay is shown using […] buffered saline (HBSS) to induce PB formation.
Immunofluorescence: Immunofluorescence (IF) staining was performed on PC3-LN4 cells stably expressing EDC3-GFP. 1×10^4 cells were seeded in each chamber of an 8 well chamber slide (Nunc Lab-Tek II Chamber Slide System, Life Technologies) and cultured for 48 h. After attaching to the chamber slides cells were treated with DMSO, VB-5445 ([…]), AZD5363 (3 μM), or the combination for 6 h. Cells were then fixed with 4% paraformaldehyde in PBS for 15 min and subsequently permeabilized with 0.2% Triton X-100 in PBS. Cells were stained with diluted DAPI (1:4000) in 1% nor-mal goat serum in PBS. Cells were mounted with Prolong Gold Antifade mounting medium (Molecular Probes).

[1] = system: T-cell acute lymphoblastic leukemia cell line DU528; assay: Cell viability (XTT) assay in T-ALL cells; assay type: cell-based; details: 72 h, listed as VBT 1-34
Description: Cell viability (XTT) assay: T-ALL cells were seeded into 96 well plates at a density of 20,000 cells per well and treated with VBT-5445 for 72 h, using DMSO as control. Cell viability was measured using XTT cell proliferation assay (Trevigen Cat #4891-025-K) following the manufacturer's protocol. Briefly, XTT reagent was added to cell culture after the treatment and incubated for 4 h at 37° C. and 5% CO2. The absorbance of the colored formazan product was measured at 450 nm.

mTORC = assay: Phosphorylation of mTORC substrates in PANC1 cells (Western blot); assay type: cell-based; details: overnight incubation
Description: (§2) Immunoblotting: Western blots were performed as described previously. Briefly, protein lysates (30 μg) were subjected to SDS-PAGE and transferred to nitrocellulose membranes. After blocking with 5% milk in TBST buffer for 30 min at room temperature, the membranes were incubated overnight at 4° C. with the Indicated primary antibody in 3% BSA in TBST. Specific proteins were detected with the corresponding HRP conjugated secondary antibody using enhanced chemiluminescence (GE Lifesciences, Piscataway, NJ).
Because of ease of growth, PANC1 pancreatic cancer cells were used to test the activity of derivatives of VBT-5445 (FIG. 14). […] Using a doxycycline inducible Pim kinase vector in these tumor cells, this inhibition of phosphorylation was proportional to the level of Pim in these cells (FIG. 9). […] Inhibition of mTORC1 is known to stimulate the feedback activation of mTORC2 leading to AKT phosphorylation. […] The effect of these compounds on mTORC1 and 2 was still evident in PC3-LN4 cells that contained a knockout (KO) using CRISPR/CAS9 of either TSC2 or DEPDC5 (FIG. 12, lanes 4-9). TSC2 KO activated the Rheb GTPase while DEPDC5 KO activated the RAG GTPase both of which stimulate mTORC1 activity. Thus, GRG compounds were capable of inhibiting mTORC1 activity even when this kinase was highly activated.

Pim kinase = assay: Pim substrate phosphorylation in LNCaP prostate cancer cells (Western blot); assay type: cell-based; details: serum-starved conditions
Description: Right: LNCaP and LNCaP stably expressed Pim1 cells were treated with DMSO and GRG-1-34 ([…]) without FBS medium for 6 h. Lysates (25 μg) were subjected to western blotting with the antibodies for P-IRS1 (S1101), IRS1, P-elF4B (S406), elF4B, P-EDC3 (S161), EDC3, Pim1, and β-Actin.
as §2

Prostate Cancer Growth = assay: SAR studies using inhibition of prostate cancer growth as a readout; assay type: cell-based; details: SAR by substituent position
DU145 prostate cancer = DU145 prostate cancer growth (crystal violet, 7 days); assay type: cell-based; details: 7 days of growth
Description: Cells were plated at 1000 cells per well and 24 h later treated with GRG compounds. After 7 days of growth, tumor cells were fixed with 4% paraformaldehyde, stained with 0.5% crystal violet in methanol and lysed in SDS. The absorbance of six samples treated with each compound or DMSO control was read at 570 nm. The error bars represent the Standard Deviation of these measurements
Cell growth was measured as in FIG. 17.

Chain of Pim1 (P11309 whole entry): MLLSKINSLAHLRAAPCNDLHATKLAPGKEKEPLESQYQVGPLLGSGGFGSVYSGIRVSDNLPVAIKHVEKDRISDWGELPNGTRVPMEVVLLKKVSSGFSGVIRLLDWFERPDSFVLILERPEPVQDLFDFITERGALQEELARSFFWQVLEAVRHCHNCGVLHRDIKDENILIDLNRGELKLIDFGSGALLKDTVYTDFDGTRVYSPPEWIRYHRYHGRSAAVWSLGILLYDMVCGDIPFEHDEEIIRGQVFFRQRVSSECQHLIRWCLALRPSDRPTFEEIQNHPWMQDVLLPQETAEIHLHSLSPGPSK

O=c1c(CNCc2cc(Br)ccn2)cc2ccc(Cl)cc2n1CCOc1ccccc1 [GRG-1-34, 3-((((4-bromopyridin-2-yl)methyl)amino)methyl)-7-chloro-1-(2-phenoxyethyl) quinolin-2 (1H)-one]
inhibition of the ability of Pim to phosphorylate EDC3 (Pim1): inhibit the ability of Pim to phosphorylate EDC3 | number of P-bodies, with AKT inhibitor AZD5363 added (PC3-LN4 cells; combination with AZD5363 (3 μM), listed as VBT 1-34): further increased the number of P-bodies; also recorded: further increases P-bodies | number of P-bodies (PC3-LN4 cells; compound alone): increases the number of P-bodies | growth of T-acute lymphoblastic leukemia cells [1]: inhibits the growth; also recorded: shows activity | block of phosphorylation of mTORC substrates (AKT, 4E-BP1, S6) (mTORC; FIG. 19): block the phosphorylation of mTORC substrates | block of phosphorylation of mTORC substrates (AKT, 4E-BP1, S6) (mTORC; FIG. 19, listed as VBT 1-34): inhibit phosphorylation of mTORC substrates | Pim kinase activity: Pim substrate phosphorylation (IRS1, elF4B, EDC3) (Pim kinase): decreased Pim substrate phosphorylation | Pim kinase activity: Pim substrate phosphorylation (IRS1, elF4B, EDC3) (Pim kinase; listed as GRG 1-34): suppresses Pim kinase activity | Pim kinase activity: Pim substrate phosphorylation (IRS1, elF4B, EDC3) (Pim kinase; listed as VBT 1-34): inhibits Pim activity | Activity (inhibition of prostate cancer growth) (Prostate Cancer Growth): 6 active compounds | DU145 prostate cancer growth (DU145 prostate cancer): Inhibition | DU145 prostate cancer growth (DU145 prostate cancer; listed as VBT 1-34): shows activity
